The text below walks through data of ChEMBL document CHEMBL5038633 (J Med Chem, 2022).

Test [1] deals with Sodium channel protein type 4 subunit alpha (Homo sapiens, UniProt P35499). Kind of test: Inhibition of human Nav1.4 stably expressed in cells with train pulses to -20 mV at 0.1 Hz and holding potential of -95 mV by whole-cell Qube-automated patch clamp assay. The test is classed as cell-based. A general note: The patch-clamp technique gives a direct electrical read-out from membranes.

The target in test [2] is Sodium channel protein type 9 subunit alpha (Homo sapiens, UniProt Q15858). Kind of test: Inhibition of human Nav1.7 stably expressed in cells with train pulses to -20 mV at 0.1 Hz and holding potential of -95 mV by Qube-automated patch clamp assay. Type of test: cell-based.
Chain of Sodium channel protein type 9 subunit alpha (Q15858 whole entry): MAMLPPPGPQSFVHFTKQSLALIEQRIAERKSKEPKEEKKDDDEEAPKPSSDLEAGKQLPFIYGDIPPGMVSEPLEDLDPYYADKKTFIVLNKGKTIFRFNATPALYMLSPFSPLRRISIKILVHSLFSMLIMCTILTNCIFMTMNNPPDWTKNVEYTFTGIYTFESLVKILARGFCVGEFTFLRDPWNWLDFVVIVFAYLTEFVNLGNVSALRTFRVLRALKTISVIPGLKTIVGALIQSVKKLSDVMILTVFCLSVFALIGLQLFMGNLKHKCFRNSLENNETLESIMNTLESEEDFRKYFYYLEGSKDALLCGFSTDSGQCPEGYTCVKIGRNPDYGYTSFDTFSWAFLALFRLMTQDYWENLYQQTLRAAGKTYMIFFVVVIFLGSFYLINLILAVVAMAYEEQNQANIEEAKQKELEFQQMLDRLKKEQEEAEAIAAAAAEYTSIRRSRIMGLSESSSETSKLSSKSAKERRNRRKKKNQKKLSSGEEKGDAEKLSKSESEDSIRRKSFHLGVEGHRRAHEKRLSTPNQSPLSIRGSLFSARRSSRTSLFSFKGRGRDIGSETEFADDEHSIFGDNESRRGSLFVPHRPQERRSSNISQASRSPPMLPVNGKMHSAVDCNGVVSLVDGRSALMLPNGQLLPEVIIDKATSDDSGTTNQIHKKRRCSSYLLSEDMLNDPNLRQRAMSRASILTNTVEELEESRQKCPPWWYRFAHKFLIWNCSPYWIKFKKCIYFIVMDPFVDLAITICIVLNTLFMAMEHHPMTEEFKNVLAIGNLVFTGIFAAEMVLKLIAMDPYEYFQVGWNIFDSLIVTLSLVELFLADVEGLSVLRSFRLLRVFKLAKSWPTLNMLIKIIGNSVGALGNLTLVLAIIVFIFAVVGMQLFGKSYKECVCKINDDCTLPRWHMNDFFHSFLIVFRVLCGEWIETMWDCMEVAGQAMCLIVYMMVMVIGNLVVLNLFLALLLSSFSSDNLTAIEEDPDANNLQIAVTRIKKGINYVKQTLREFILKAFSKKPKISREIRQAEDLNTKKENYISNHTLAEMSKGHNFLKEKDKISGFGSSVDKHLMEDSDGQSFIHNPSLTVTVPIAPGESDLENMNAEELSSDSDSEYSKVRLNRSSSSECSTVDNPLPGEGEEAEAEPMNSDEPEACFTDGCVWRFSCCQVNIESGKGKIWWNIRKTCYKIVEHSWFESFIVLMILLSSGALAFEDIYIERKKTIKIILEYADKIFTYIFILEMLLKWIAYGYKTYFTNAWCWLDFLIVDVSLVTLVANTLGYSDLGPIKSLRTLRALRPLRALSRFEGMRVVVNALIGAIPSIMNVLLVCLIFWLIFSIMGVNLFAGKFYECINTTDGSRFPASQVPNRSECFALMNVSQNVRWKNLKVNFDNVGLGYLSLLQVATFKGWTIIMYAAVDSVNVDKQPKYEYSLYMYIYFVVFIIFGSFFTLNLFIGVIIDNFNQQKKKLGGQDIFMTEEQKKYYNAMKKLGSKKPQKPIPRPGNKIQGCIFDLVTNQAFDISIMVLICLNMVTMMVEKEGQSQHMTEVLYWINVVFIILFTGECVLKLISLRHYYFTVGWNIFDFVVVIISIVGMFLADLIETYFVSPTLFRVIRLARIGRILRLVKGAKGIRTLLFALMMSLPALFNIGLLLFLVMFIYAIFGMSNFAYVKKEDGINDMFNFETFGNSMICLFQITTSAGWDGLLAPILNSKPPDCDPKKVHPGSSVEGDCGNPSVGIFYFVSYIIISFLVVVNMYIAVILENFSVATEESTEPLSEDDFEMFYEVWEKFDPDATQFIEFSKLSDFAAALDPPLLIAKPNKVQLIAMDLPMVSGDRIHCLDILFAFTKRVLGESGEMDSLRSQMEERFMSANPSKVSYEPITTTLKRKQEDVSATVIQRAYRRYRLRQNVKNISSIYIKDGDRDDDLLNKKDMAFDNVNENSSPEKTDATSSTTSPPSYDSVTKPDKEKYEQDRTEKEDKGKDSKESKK
In test [3] the target is Sodium channel protein type 8 subunit alpha (Homo sapiens, UniProt Q9UQD0). Put plainly: Inhibition of human Nav1.6 stably expressed in cells with train pulses to -20 mV at 0.1 Hz and holding potential of -85 mV by whole-cell Qube-automated patch clamp assay. Type of test: cell-based.
Chain of Sodium channel protein type 8 subunit alpha (Q9UQD0 whole entry): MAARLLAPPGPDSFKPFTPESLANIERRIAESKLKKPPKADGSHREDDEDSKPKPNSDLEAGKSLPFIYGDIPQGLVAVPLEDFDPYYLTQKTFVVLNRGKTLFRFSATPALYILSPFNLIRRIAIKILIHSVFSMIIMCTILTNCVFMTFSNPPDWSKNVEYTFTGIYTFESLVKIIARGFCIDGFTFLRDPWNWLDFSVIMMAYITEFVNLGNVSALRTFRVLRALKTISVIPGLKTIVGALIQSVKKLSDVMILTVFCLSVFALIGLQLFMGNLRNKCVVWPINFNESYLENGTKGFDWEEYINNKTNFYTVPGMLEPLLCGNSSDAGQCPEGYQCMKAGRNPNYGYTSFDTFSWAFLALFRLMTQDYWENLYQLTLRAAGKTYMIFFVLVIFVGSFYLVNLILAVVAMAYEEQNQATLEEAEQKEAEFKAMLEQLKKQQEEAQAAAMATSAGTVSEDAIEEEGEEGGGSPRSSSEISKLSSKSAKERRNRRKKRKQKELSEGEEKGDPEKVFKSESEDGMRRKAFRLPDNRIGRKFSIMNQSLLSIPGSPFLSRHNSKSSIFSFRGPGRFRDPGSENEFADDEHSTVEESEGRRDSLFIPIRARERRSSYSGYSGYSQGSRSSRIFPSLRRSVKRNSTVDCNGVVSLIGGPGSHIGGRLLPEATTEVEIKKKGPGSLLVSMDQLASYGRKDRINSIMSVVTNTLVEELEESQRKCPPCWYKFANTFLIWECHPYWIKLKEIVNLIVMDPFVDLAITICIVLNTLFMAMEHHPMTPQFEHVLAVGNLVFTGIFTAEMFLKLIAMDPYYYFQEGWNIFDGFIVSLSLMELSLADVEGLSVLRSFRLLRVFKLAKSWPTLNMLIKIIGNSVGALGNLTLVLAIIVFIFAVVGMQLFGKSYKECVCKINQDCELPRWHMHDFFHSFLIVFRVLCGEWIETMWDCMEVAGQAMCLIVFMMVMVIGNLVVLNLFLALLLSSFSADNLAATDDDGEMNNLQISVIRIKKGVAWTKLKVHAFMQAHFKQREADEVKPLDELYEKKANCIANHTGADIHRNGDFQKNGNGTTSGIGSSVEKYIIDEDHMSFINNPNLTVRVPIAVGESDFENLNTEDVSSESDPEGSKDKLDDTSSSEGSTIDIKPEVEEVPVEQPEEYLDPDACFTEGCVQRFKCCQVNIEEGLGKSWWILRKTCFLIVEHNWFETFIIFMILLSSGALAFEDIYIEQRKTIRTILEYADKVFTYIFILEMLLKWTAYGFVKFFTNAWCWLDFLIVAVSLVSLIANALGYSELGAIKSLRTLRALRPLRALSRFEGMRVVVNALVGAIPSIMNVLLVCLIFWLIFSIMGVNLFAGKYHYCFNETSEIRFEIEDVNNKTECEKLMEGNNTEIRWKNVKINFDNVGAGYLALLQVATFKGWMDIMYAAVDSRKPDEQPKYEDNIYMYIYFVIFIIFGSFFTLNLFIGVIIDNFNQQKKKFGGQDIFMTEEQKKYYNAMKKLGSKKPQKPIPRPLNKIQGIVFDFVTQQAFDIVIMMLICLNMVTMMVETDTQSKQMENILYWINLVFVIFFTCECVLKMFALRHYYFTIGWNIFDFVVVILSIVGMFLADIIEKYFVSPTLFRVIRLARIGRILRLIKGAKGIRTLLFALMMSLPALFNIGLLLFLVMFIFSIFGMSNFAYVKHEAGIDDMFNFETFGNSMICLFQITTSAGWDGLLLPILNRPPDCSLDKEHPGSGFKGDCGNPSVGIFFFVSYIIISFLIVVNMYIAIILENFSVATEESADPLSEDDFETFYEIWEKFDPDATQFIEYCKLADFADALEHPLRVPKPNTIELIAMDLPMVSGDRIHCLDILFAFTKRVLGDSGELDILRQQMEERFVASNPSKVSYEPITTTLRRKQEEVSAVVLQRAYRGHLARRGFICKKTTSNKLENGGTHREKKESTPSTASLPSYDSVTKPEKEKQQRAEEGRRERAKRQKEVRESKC
Test [4] can be described thus: Inhibition of mast cell degranulation in Wistar Han rat peritoneal lavage mast cells assessed as inhibition histamine release by measuring lowest concentration at which histamine release observed measured after 30 mins. The test is classed as functional. Conditions: 0.5 h.

Molecules are shown by their SMILES. pIC50: −log10 of the molar value. Where a SMILES comes first, the peptide text is derived from it. Bridges are numbered along the chain shown (N, C = ends). [ ]: non-standard residue; d: D form. Trp(5-Br) = N[C@@H](Cc1c[nH]c2ccc(Br)cc12)C(=O)O; Abu(4,4,4-F3) = N[C@@H](CC(F)(F)F)C(=O)O; Phe(3-Cl) = N[C@@H](Cc1cccc(Cl)c1)C(=O)O; Phe(4-Cl) = N[C@@H](Cc1ccc(Cl)cc1)C(=O)O; Cha = N[C@@H](CC1CCCCC1)C(=O)O; Chg = N[C@H](C(=O)O)C1CCCCC1 A value given as a limit tells only on which side of the number the result lay.

Broadly, the pIC50 is the IC50 on a negative log10 scale, so that one unit is a factor of ten. High values mean a small IC50, low ones a large IC50. `CC(=O)N[C@H]1CSSC[C@@H]2NC(=O)[C@@H]3CSSC[C@@H](C(=O)N[C@@H](CCCCN)C(=O)N[C@@H](CCCCN)C(=O)N[C@@H](CCCCN)C(=O)N[C@@H](CC(C)C)C(N)=O)NC(=O)[C@H](Cc4c[nH]c5ccccc45)NC(=O)[C@H](C4CCCCC4)NC(=O)[C@H](CCCCN)NC(=O)[C@H](CSSC[C@H](NC(=O)[C@@H]4CCCN4C(=O)[C@H](CCC(=O)O)NC(=O)[C@H](CC(F)(F)F)NC(=O)[C@H](Cc4ccccc4)NC(=O)[C@H](CCCCN)NC(=O)[C@H](CCC(N)=O)NC1=O)C(=O)N[C@@H](CC(=O)O)C(=O)N[C@@H](CO)C(=O)N[C@@H](CCC(=O)O)C(=O)N[C@@H](CCCNC(=N)N)C(=O)N[C@@H](CCCCN)C(=O)N3)NC(=O)[C@H](CCC(=O)O)NC(=O)[C@H](CC(C)C)NC(=O)CNC(=O)[C@H](CCC(=O)O)NC2=O` (Ac-CQKF[Abu(4,4,4-F3)]EPCDSERKCCEGLECK[Chg]WCKKKL-NH2; disulfide 1-15, 8-20, 14-24): the negative logarithm of the IC50 (pIC50) was less than 4.77 in test [1], 6.62 in test [2] and less than 4.77 in test [3]. The LED in test [4] came out at 100 µM.

For `CC(=O)N[C@H]1CSSC[C@@H]2NC(=O)[C@@H]3CSSC[C@@H](C(=O)N[C@@H](CCCCN)C(=O)N[C@@H](CCCCN)C(=O)N[C@@H](CCCCN)C(=O)N[C@@H](CC(C)C)C(=O)N[C@@H](Cc4c[nH]c5ccccc45)C(N)=O)NC(=O)[C@H](Cc4c[nH]c5ccccc45)NC(=O)[C@H](C4CCCCC4)NC(=O)[C@H](CCCCN)NC(=O)[C@H](CSSC[C@H](NC(=O)[C@@H]4CCCN4C(=O)[C@H](CCC(=O)O)NC(=O)[C@H](CC(F)(F)F)NC(=O)[C@H](Cc4ccccc4)NC(=O)[C@H](CCCCN)NC(=O)[C@H](CCC(N)=O)NC1=O)C(=O)N[C@@H](CC(=O)O)C(=O)N[C@@H](CO)C(=O)N[C@@H](CCC(=O)O)C(=O)N[C@@H](CCCNC(=N)N)C(=O)N[C@@H](CCCCN)C(=O)N3)NC(=O)[C@H](CCC(=O)O)NC(=O)[C@H](CC(C)C)NC(=O)CNC(=O)[C@H](CCC(=O)O)NC2=O` (Ac-CQKF[Abu(4,4,4-F3)]EPCDSERKCCEGLECK[Chg]WCKKKLW-NH2; disulfide 1-15, 8-20, 14-24), the negative logarithm of the IC50 (pIC50) in test [1] was less than 4.77; in test [2], 7.08; in test [3], less than 4.77. For the same compound, the LED in test [4] came out at 30 µM.

Regarding `CC(=O)N[C@H]1CSSC[C@@H]2NC(=O)[C@@H]3CSSC[C@@H](C(=O)N[C@@H](CCCCN)C(=O)N[C@@H](CCCCN)C(=O)N[C@@H](CCCCN)C(=O)N[C@@H](CC(C)C)C(=O)N[C@@H](Cc4c[nH]c5ccccc45)C(N)=O)NC(=O)[C@H](Cc4c[nH]c5ccccc45)NC(=O)[C@H](CC4CCCCC4)NC(=O)[C@H](CCCCN)NC(=O)[C@H](CSSC[C@H](NC(=O)[C@@H]4CCCN4C(=O)[C@H](CCC(=O)O)NC(=O)[C@H](CC(F)(F)F)NC(=O)[C@H](CC4CCCCC4)NC(=O)[C@H](CCCCN)NC(=O)[C@H](CCC(N)=O)NC1=O)C(=O)N[C@@H](CC(=O)O)C(=O)N[C@@H](CO)C(=O)N[C@@H](CCC(=O)O)C(=O)N[C@@H](CCCNC(=N)N)C(=O)N[C@@H](CCCCN)C(=O)N3)NC(=O)[C@H](CCC(=O)O)NC(=O)[C@H](CC(C)C)NC(=O)CNC(=O)[C@H](CCC(=O)O)NC2=O` (Ac-CQK[Cha][Abu(4,4,4-F3)]EPCDSERKCCEGLECK[Cha]WCKKKLW-NH2; disulfide 1-15, 8-20, 14-24), the pIC50 in test [1] was less than 4.77; in test [2], 7.12; in test [3], less than 4.77. Moreover, the LED in test [4] is 33 µM.

`CC(=O)N[C@H]1CSSC[C@@H]2NC(=O)[C@@H]3CSSC[C@@H](C(=O)N[C@@H](CCCCN)C(=O)N[C@@H](CCCCN)C(=O)N[C@@H](CCCCN)C(=O)N[C@@H](CC(C)C)C(=O)N[C@@H](Cc4c[nH]c5ccccc45)C(N)=O)NC(=O)[C@H](Cc4c[nH]c5ccccc45)NC(=O)[C@H](C4CCCCC4)NC(=O)[C@H](CCCCN)NC(=O)[C@H](CSSC[C@H](NC(=O)[C@@H]4CCCN4C(=O)[C@H](CCC(=O)O)NC(=O)[C@H](CC(F)(F)F)NC(=O)[C@H](CC4CCCCC4)NC(=O)[C@H](CCCCN)NC(=O)[C@H](CCC(N)=O)NC1=O)C(=O)N[C@@H](CC(=O)O)C(=O)N[C@@H](CO)C(=O)N[C@@H](CCC(=O)O)C(=O)N[C@@H](CCCNC(=N)N)C(=O)N[C@@H](CCCCN)C(=O)N3)NC(=O)[C@H](CCC(=O)O)NC(=O)[C@H](CC(C)C)NC(=O)CNC(=O)[C@H](CCC(=O)O)NC2=O` (Ac-CQK[Cha][Abu(4,4,4-F3)]EPCDSERKCCEGLECK[Chg]WCKKKLW-NH2; disulfide 1-15, 8-20, 14-24): the pIC50 in test [1] was less than 4.77; in test [2] it was 6.96; in test [3], less than 4.77. Also, the LED in test [4] turned out to be 30 µM.

As to `CC(=O)N[C@H]1CSSC[C@@H]2NC(=O)[C@@H]3CSSC[C@@H](C(=O)N[C@@H](CCCCN)C(=O)N[C@@H](CCCCN)C(=O)N[C@@H](CCCCN)C(=O)N[C@@H](CC(C)C)C(=O)N[C@@H](Cc4c[nH]c5ccccc45)C(N)=O)NC(=O)[C@H](Cc4c[nH]c5ccccc45)NC(=O)[C@H](C4CCCCC4)NC(=O)[C@H](CCCCN)NC(=O)[C@H](CSSC[C@H](NC(=O)[C@@H]4CCCN4C(=O)[C@H](CCC(=O)O)NC(=O)[C@H](CC(F)(F)F)NC(=O)[C@H](Cc4cccc(Cl)c4)NC(=O)[C@H](CCCCN)NC(=O)[C@H](CCC(N)=O)NC1=O)C(=O)N[C@@H](CC(=O)O)C(=O)N[C@@H](CO)C(=O)N[C@@H](CCC(=O)O)C(=O)N[C@@H](CCCNC(=N)N)C(=O)N[C@@H](CCCCN)C(=O)N3)NC(=O)[C@H](CCC(=O)O)NC(=O)[C@H](CC(C)C)NC(=O)CNC(=O)[C@H](CCC(=O)O)NC2=O` (Ac-CQK[Phe(3-Cl)][Abu(4,4,4-F3)]EPCDSERKCCEGLECK[Chg]WCKKKLW-NH2; disulfide 1-15, 8-20, 14-24), the results for the negative logarithm of the IC50 (pIC50) in test [1], in test [2] and in test [3] were less than 4.77, 7.19 and less than 4.77, respectively. In test [4], the LED worked out at 33 µM.

As for `CC(=O)N[C@H]1CSSC[C@@H]2NC(=O)[C@@H]3CSSC[C@@H](C(=O)N[C@@H](CCCCN)C(=O)N[C@@H](CCCCN)C(=O)N[C@@H](CCCCN)C(=O)N[C@@H](CC(C)C)C(=O)N[C@@H](Cc4c[nH]c5ccccc45)C(=O)O)NC(=O)[C@H](Cc4c[nH]c5ccccc45)NC(=O)[C@H](C4CCCCC4)NC(=O)[C@H](CCCCN)NC(=O)[C@H](CSSC[C@H](NC(=O)[C@@H]4CCCN4C(=O)[C@H](CCC(=O)O)NC(=O)[C@H](CC(F)(F)F)NC(=O)[C@H](Cc4ccc(Cl)cc4)NC(=O)[C@H](CCCCN)NC(=O)[C@H](CCC(N)=O)NC1=O)C(=O)N[C@@H](CC(=O)O)C(=O)N[C@@H](CO)C(=O)N[C@@H](CCC(=O)O)C(=O)N[C@@H](CCCNC(=N)N)C(=O)N[C@@H](CCCCN)C(=O)N3)NC(=O)[C@H](CCC(=O)O)NC(=O)[C@H](CC(C)C)NC(=O)CNC(=O)[C@H](CCC(=O)O)NC2=O` (Ac-CQK[Phe(4-Cl)][Abu(4,4,4-F3)]EPCDSERKCCEGLECK[Chg]WCKKKLW-OH; disulfide 1-15, 8-20, 14-24), the figures for the pIC50 in test [1], in test [2] and in test [3] were less than 4.77, 7.04 and 4.95, respectively. Moreover, the LED in test [4] stood at 30 µM.

Take `CC(=O)N[C@H]1CSSC[C@@H]2NC(=O)[C@@H]3CSSC[C@@H](C(=O)N[C@@H](CCCCN)C(=O)N[C@@H](CCCCN)C(=O)N[C@@H](CCCCN)C(=O)N[C@@H](CC(C)C)C(=O)N[C@@H](Cc4c[nH]c5ccccc45)C(N)=O)NC(=O)[C@H](Cc4c[nH]c5ccccc45)NC(=O)[C@H](C4CCCCC4)NC(=O)[C@H](CCCCN)NC(=O)[C@H](CSSC[C@H](NC(=O)[C@@H]4CCCN4C(=O)[C@H](CCC(=O)O)NC(=O)[C@H](CC(F)(F)F)NC(=O)[C@H](Cc4c[nH]c5ccc(Br)cc45)NC(=O)[C@H](CCCCN)NC(=O)[C@H](CCC(N)=O)NC1=O)C(=O)N[C@@H](CC(=O)O)C(=O)N[C@@H](CO)C(=O)N[C@@H](CCC(=O)O)C(=O)N[C@@H](CCCNC(=N)N)C(=O)N[C@@H](CCCCN)C(=O)N3)NC(=O)[C@H](CCC(=O)O)NC(=O)[C@H](CC(C)C)NC(=O)CNC(=O)[C@H](CCC(=O)O)NC2=O` (Ac-CQK[Trp(5-Br)][Abu(4,4,4-F3)]EPCDSERKCCEGLECK[Chg]WCKKKLW-NH2; disulfide 1-15, 8-20, 14-24): the pIC50 is less than 4.77 in test [1], 7.52 in test [2] and 5.58 in test [3]. Besides, the LED in test [4] turned out to be 3.3 µM.
